In this experiment the test system is MX-1 breast xenograft, nude mice, tumor weight T/C. Put plainly: NCI In Vivo Anticancer Drug Screen. Data for tumor model Human Mammary Carcinoma MX-1 Xenograft (intrarenal inoculation) in NU/NU Swiss (nude) mice. The following applies: endpoint: mean tumor weight change, higher = larger tumour. A digest of the protocol:
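Mice carrying the implanted tumor receive either test agent or vehicle. Tumor size or survival is then recorded for both groups. Results are stated as the treated-to-control quotient.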

The mark [1] stands for this setting: dose: 50.0 mg/kg/injection, schedule: Q01DX010 (sc), vehicle: Klucel (hydroxypropylcellulose) (HPC).
Where [2] appears, read: dose: 100.0 mg/kg/injection, schedule: Q01DX010 (sc), vehicle: Klucel (hydroxypropylcellulose) (HPC).
Where [3] appears, read: dose: 200.0 mg/kg/injection, schedule: Q01DX010 (sc), vehicle: Klucel (hydroxypropylcellulose) (HPC).
Setting [4] is: dose: 150.0 mg/kg/injection, schedule: Q04DX003 (sc), vehicle: Klucel (hydroxypropylcellulose) (HPC).
Where [5] appears, read: dose: 300.0 mg/kg/injection, schedule: Q04DX003 (sc), vehicle: Klucel (hydroxypropylcellulose) (HPC).
The mark [6] stands for this setting: dose: 600.0 mg/kg/injection, schedule: Q04DX003 (sc), vehicle: Klucel (hydroxypropylcellulose) (HPC).
The mark [7] stands for this setting: dose: 1200.0 mg/kg/injection, schedule: Q04DX003 (sc), vehicle: Klucel (hydroxypropylcellulose) (HPC).
Where [8] appears, read: dose: 100.0 mg/kg/injection, schedule: Q01DX010 (sc), vehicle: saline with Tween-80.
Setting [9] is: dose: 200.0 mg/kg/injection, schedule: Q01DX010 (sc), vehicle: saline with Tween-80.
Setting [10] is: dose: 200.0 mg/kg/injection, schedule: Q04DX003 (sc), vehicle: Klucel (hydroxypropylcellulose) (HPC).
The mark [11] stands for this setting: dose: 400.0 mg/kg/injection, schedule: Q04DX003 (sc), vehicle: Klucel (hydroxypropylcellulose) (HPC).
The mark [12] stands for this setting: dose: 300.0 mg/kg/injection, schedule: Q04DX003 (sc), vehicle: suspension in saline.
[13] abbreviates: dose: 600.0 mg/kg/injection, schedule: Q04DX003 (sc), vehicle: suspension in saline.
Where [14] appears, read: dose: 1200.0 mg/kg/injection, schedule: Q04DX003 (sc), vehicle: suspension in saline.

Where “and” joins values, the source holds several entries; their conditions need not be identical. Identical values can stand only once. Results filed as inconclusive are left out.

Regarding `C=C(OP(=O)(OC)OC)Sc1ccccc1C`, the T/C was 65 % of control (dose: 0.2 mg/kg/injection, schedule: Q04DX003 (sc), vehicle: Klucel (hydroxypropylcellulose) (HPC)) and 67 % of control (dose: 0.4 mg/kg/injection, schedule: Q04DX003 (sc), vehicle: Klucel (hydroxypropylcellulose) (HPC)).
Turning to `Cc1ccc2c(ccc(CC(=S)[S-])[n+]2C)c1`, the T/C is, setting by setting: under setting [1], 57 % of control; under setting [2], 80 % of control; under setting [3], 28 % of control; (dose: 400.0 mg/kg/injection, schedule: Q01DX010 (sc), vehicle: Klucel (hydroxypropylcellulose) (HPC)) 107 % of control.
With `CN(C)c1ccc2c(NCCCCCCNc3ccnc4cc(N(C)C)ccc34)ccnc2c1`, the T/C reads like this: (dose: 37.5 mg/kg/injection, schedule: Q04DX003 (sc), vehicle: distilled water + Tween-80 + alcohol) 72 % of control; (dose: 75.0 mg/kg/injection, schedule: Q04DX003 (sc), vehicle: distilled water + Tween-80 + alcohol) 63 % of control and 64 % of control; (dose: 600.0 mg/kg/injection, schedule: Q04DX003 (sc), vehicle: distilled water + Tween-80 + alcohol) 34 % of control and 54 % of control.
Turning to `COc1cc(C(=O)c2cc3c(cc2C)OCO3)cc(OC)c1OC`, the T/C by setting is: under setting [4], 46 % of control; under setting [5], 44 % of control; under setting [6], 43 % of control; under setting [7], 53 % of control.
Consider `CCO/C=C1\SC(=S)N(c2ccccc2C)C1=O`, for which the T/C was 121 % of control under setting [8]; 90 % of control under setting [9]; 111 % of control (dose: 800.0 mg/kg/injection, schedule: Q01DX010 (sc), vehicle: saline with Tween-80).
Take `O=[N+]([O-])c1ccc(-n2[nH]nnc2=S)cc1`: the T/C under setting [10] is 158 % of control; the T/C under setting [11] is 151 % of control; the T/C (dose: 800.0 mg/kg/injection, schedule: Q04DX003 (sc), vehicle: Klucel (hydroxypropylcellulose) (HPC)) is 169 % of control.
With `CCC[CH2][Hg][Cl]`, the T/C by setting is: (dose: 9.38 mg/kg/injection, schedule: Q04DX003 (sc), vehicle: Klucel (hydroxypropylcellulose) (HPC)) 74 % of control; (dose: 18.75 mg/kg/injection, schedule: Q04DX003 (sc), vehicle: Klucel (hydroxypropylcellulose) (HPC)) 61 % of control; (dose: 37.5 mg/kg/injection, schedule: Q04DX003 (sc), vehicle: Klucel (hydroxypropylcellulose) (HPC)) 46 % of control.
For the compound `Oc1ccc(O)cc1`, the T/C is, setting by setting: (dose: 25.0 mg/kg/injection, schedule: Q04DX003 (sc), vehicle: saline) 81 % of control; (dose: 50.0 mg/kg/injection, schedule: Q04DX003 (sc), vehicle: saline) 71 % of control; (dose: 100.0 mg/kg/injection, schedule: Q04DX003 (sc), vehicle: saline) 75 % of control.
`CC(=O)NC(C=O)OCC=O` (configuration not stated): the T/C by setting is: (dose: 100.0 mg/kg/injection, schedule: Q04DX003 (sc), vehicle: water) 108 % of control; (dose: 200.0 mg/kg/injection, schedule: Q04DX003 (sc), vehicle: water) 72 % of control; (dose: 400.0 mg/kg/injection, schedule: Q04DX003 (sc), vehicle: water) 91 % of control.
As for `CCCCCCCCCCCCCCCCCCOCC(COP(=O)([O-])OCC[N+](C)(C)C)OC` (configuration not stated), the T/C (dose: 150.0 mg/kg/injection, schedule: Q04DX003 (sc), vehicle: saline) is 120 % of control.
Consider `C=C(C(=O)O)C(N)C(=O)O` (configuration not stated), for which the T/C is, setting by setting: under setting [12], 96 % of control; under setting [13], 78 % of control; under setting [14], 88 % of control.
For `N=c1nc2n(cc1F)[C@@H]1O[C@H](CO)[C@@H](O)[C@@H]1O2`, in that order: 104 % of control, 89 % of control and 117 % of control.
For `CN(C)CCCNc1c2ccccc2nc2cccc([N+](=O)[O-])c12`, the T/C (dose: 0.37 mg/kg/injection, schedule: Q04DX003 (sc), vehicle: saline) is 78 % of control.
Turning to `C/C(=C\c1ccccc1)[N+](=O)[O-]`, the T/C by setting is: (dose: 25.0 mg/kg/injection, schedule: Q01DX010 (sc), vehicle: Klucel (hydroxypropylcellulose) (HPC)) 38 % of control; under setting [1], 88 % of control; under setting [2], 45 % of control and 53 % of control; under setting [3], 55 % of control and 59 % of control.
Consider `COc1cc(C(=O)c2cocc2C(=O)c2ccc3c(c2)OCO3)cc(OC)c1OC`, for which the T/C under setting [4] is 74 % of control, the T/C under setting [5] is 52 % of control, the T/C under setting [6] is 56 % of control and the T/C under setting [7] was 44 % of control.
As for `N#Cc1nc(C#N)c(Sc2ccccc2)c(Sc2ccccc2)c1Sc1ccccc1`, the T/C runs as follows: (dose: 25.0 mg/kg/injection, schedule: Q01DX010 (sc), vehicle: saline with Tween-80) 57 % of control; under setting [8], 24 % of control; under setting [9], 80 % of control.
As for `[Cl][Pt+2][Cl].[NH-]C1CCC1.[NH2-]`, the T/C runs as follows: (dose: 6.25 mg/kg/injection, schedule: Q04DX003 (sc), vehicle: suspension in saline) -100 % of control; (dose: 25.0 mg/kg/injection, schedule: Q04DX003 (sc), vehicle: suspension in saline) -84 % of control and -100 % of control.
Turning to `C[N+](C)(C)c1cc2c(nn1)Nc1ccccc1S2`, the T/C by setting is: under setting [1], 74 % of control; under setting [2], 240 % of control and 272 % of control.
As to `CCc1ccccc1N1CCN(C(=O)c2cc(OC)c(OC)c(OC)c2)CC1`, the T/C (dose: 100.0 mg/kg/injection, schedule: Q04DX003 (sc), vehicle: Klucel (hydroxypropylcellulose) (HPC)) was 88 % of control; the T/C under setting [10] was 86 % of control; the T/C under setting [11] is 50 % of control.
As for `COc1ccc(/C=C/C(=O)c2cc(C(=O)O)c(OC)cc2OC)cc1OC`, the T/C under setting [12] was 99 % of control.
Turning to `OCCOCCN1CCN(CCCN2c3ccccc3Sc3ccc(C(F)(F)F)cc32)CC1`, the T/C is 111 % of control (dose: 3.0 mg/kg/injection, schedule: Q01DX010 (sc), vehicle: saline); 41 % of control and 55 % of control (dose: 24.0 mg/kg/injection, schedule: Q01DX010 (sc), vehicle: saline); 39 % of control (dose: 48.0 mg/kg/injection, schedule: Q01DX010 (sc), vehicle: saline).
On to `COC(C(=O)C(O)C(C)O)C1Cc2cc3cc(OC4CC(OC(C)=O)C(OC5CC(O)C(OC)C(C)O5)C(C)O4)cc(O)c3c(O)c2C(=O)C1OC1CC(OC2CC(OC3CC(C)(O)C(OC(=O)C(C)C)C(C)O3)C(O)C(C)O2)C(O)C(C)O1` (configuration not stated), for which the T/C runs as follows: (dose: 1.0 mg/kg/injection, schedule: Q04DX003 (sc), vehicle: saline with Tween-80) 47 % of control; (dose: 1.5 mg/kg/injection, schedule: Q04DX003 (sc), vehicle: saline with Tween-80) 11 % of control and 26 % of control and 28 % of control; (dose: 2.0 mg/kg/injection, schedule: Q04DX003 (sc), vehicle: saline with Tween-80) 49 % of control; (dose: 4.0 mg/kg/injection, schedule: Q04DX003 (sc), vehicle: saline with Tween-80) 13 % of control; (dose: 8.0 mg/kg/injection, schedule: Q04DX003 (sc), vehicle: saline with Tween-80) -79 % of control.
Consider `Cc1cc(N(CCOS(C)(=O)=O)CCOS(C)(=O)=O)ccc1C=Nc1ccc(-c2nc(Cc3ccccc3)sc2C)cc1`, for which the T/C runs as follows: under setting [1], -79 % of control; under setting [2], -88 % of control; under setting [3], -87 % of control.
Consider `CC(=O)Oc1c[nH]c(=O)[nH]c1=O`, for which the T/C runs as follows: (dose: 100.0 mg/kg/injection, schedule: Q04DX003 (sc), vehicle: distilled water + Tween-80) 117 % of control; (dose: 400.0 mg/kg/injection, schedule: Q04DX003 (sc), vehicle: distilled water + Tween-80) 97 % of control; (dose: 800.0 mg/kg/injection, schedule: Q04DX003 (sc), vehicle: distilled water + Tween-80) 95 % of control; (dose: 1600.0 mg/kg/injection, schedule: Q04DX003 (sc), vehicle: distilled water + Tween-80) 58 % of control.
`O=Cc1ccc(O)c(O)c1`: the T/C (dose: 300.0 mg/kg/injection, schedule: Q04DX003 (sc), vehicle: saline with Tween-80) was 181 % of control.
With `CC(C)NC(=O)N(CCCCBr)N=O`, the T/C was 42 % of control and 47 % of control (dose: 75.0 mg/kg/injection, schedule: Q04DX003 (sc), vehicle: Klucel (hydroxypropylcellulose) (HPC)); 40 % of control under setting [5].
`[O-][n+]1c(CN2CCCCC2)nc2cccc3c2c1-c1ccccc1-3`: the T/C was 94 % of control under setting [5]; 102 % of control under setting [6]; 105 % of control under setting [7]; 70 % of control (dose: 2400.0 mg/kg/injection, schedule: Q04DX003 (sc), vehicle: Klucel (hydroxypropylcellulose) (HPC)).

The values are drawn from PubChem BioAssay AID296 (DTP/NCI, 2004).
